In article PMC10569036:

Key:
[1] = shake flask on a mixture of 185; loss from the water phase only; LC-QTOF peak areas; settings: room
[2] = shake flask on a mixture of 185; loss from the water phase only; LC-Orbitrap peak areas; settings: room

Structure (SMILES) | log partition 1-octanol / HPLC water, unbuffered, traces of methanol / DMSO [1] [log10] | log partition butyl acetate / HPLC water, unbuffered, traces of methanol / DMSO [1] [log10] | log partition chloroform / HPLC water, unbuffered, traces of methanol / DMSO [1] [log10] | log partition cyclohexane / HPLC water, unbuffered, traces of methanol / DMSO [1] [log10] | log partition dichloromethane / HPLC water, unbuffered, traces of methanol / DMSO [1] [log10] | log partition n-hexane / HPLC water, unbuffered, traces of methanol / DMSO [1] [log10] | log partition n-octane / HPLC water, unbuffered, traces of methanol / DMSO [1] [log10] | log partition n-undecane / HPLC water, unbuffered, traces of methanol / DMSO [1] [log10] | log partition oleylalcohol / HPLC water, unbuffered, traces of methanol / DMSO [1] [log10] | log partition toluene / HPLC water, unbuffered, traces of methanol / DMSO [1] [log10] | log partition 1-octanol / HPLC water, unbuffered, traces of methanol / DMSO [2] [log10] | log partition butyl acetate / HPLC water, unbuffered, traces of methanol / DMSO [2] [log10] | log partition chloroform / HPLC water, unbuffered, traces of methanol / DMSO [2] [log10] | log partition cyclohexane / HPLC water, unbuffered, traces of methanol / DMSO [2] [log10] | log partition dichloromethane / HPLC water, unbuffered, traces of methanol / DMSO [2] [log10] | log partition n-hexane / HPLC water, unbuffered, traces of methanol / DMSO [2] [log10] | log partition n-octane / HPLC water, unbuffered, traces of methanol / DMSO [2] [log10] | log partition n-undecane / HPLC water, unbuffered, traces of methanol / DMSO [2] [log10] | log partition oleylalcohol / HPLC water, unbuffered, traces of methanol / DMSO [2] [log10] | log partition toluene / HPLC water, unbuffered, traces of methanol / DMSO [2] [log10]
C[C@H](CCC(=O)O)[C@H]1CC[C@H]2[C@@H]3CC[C@@H]4C[C@H](O)CC[C@]4(C)[C@H]3CC[C@]12C | 0.06003 | -0.5367 | 0.5205 | -1.544 | 0.7072 | -1.606 | -1.699 | -0.8435 | -0.1203 | -1.053 | 1.225 | 0.9932 | 1.423 | 0.1846 | 0.6345 | -0.08609 | 0.2702 | 0.118 | -0.1437 | 0.6204
CCC(C)(CC)c1cc(NC(=O)c2c(OC)cccc2OC)on1 | 1.786 | 2.159 | 2.432 | 1.696 | 1.861 | 0.9529 | 1.176 | 1.012 | 2.115 | 2.04 | 2.911 | 2.863 | 1.794 | 1.372 | 2.835 | 0.9138 | 0.8981 | 0.6241 | 2.582 | 2.848
